Biological target: T1, pp60c-Src (Homo sapiens, UniProt P12931)
T1 construct: made in house; elsewhere 3Y1 rat fibroblasts are transfected with pcSrc531RI (pcDNA3.1)
Test: Competitive inhibition of enolase phosphorylation by Src kinase
Type: biochemical
Details: 1 μM acid treated enolase; read-out: K50% competitive inhibition of enolase phosphorylation
Method: A library of peptides to be tested as antagonists of pp60 c-Src mutant tyrosine kinase are synthesized according to the procedure disclosed in U.S. Pat. No. 5,532,167 to Cantley, which is incorporated herein by way of reference. Accordingly a peptide Ala-Glu-Glu-Glu-Ile-Tyr-Gly-Glu-Phe-Glu-Ala-Lys-Lys-Lys-Lys is synthesized as an optimal substrate/antagonist for mutant Src tyrosine kinase. The kinetic studies are carried out as follows. Purified mutant kinase is immobilized on protein A beads and kinase reaction is performed in 20 μl of 50 mM Tris pH 7.0 buffer containing 50 mM NaCl, 10 mM MgCl2, 10 μM ATP 5 μCi [gamma-^32P]-ATP (3000 mCi/mmol, NEN) and various dilutions of the peptide. For the experiment measuring the competitive inhibition of c-Src activity by the Src motif-containing peptide, 1 μM (final concentration) acid treated enolase (trans-phosphorylation) is included. After 2.5 minutes incubation, the supernatants are spotted on phosphocellulose paper, washed four times with 75 mM phosphoric acid, and radioactivity counted in a scintillation counter. For phosphorylation of enolase, the reaction is stopped by adding SDS loading buffer and the proteins are resolved on 10% SDS-PAGE gels. The Km and Vmax are calculated using a standard computer software. The peptide is a good substrate for pp60c-Src, with Km of 2 μM and Vmax of 0.9 μM/mg/min. […]

T1 sequence (P12931 2-530): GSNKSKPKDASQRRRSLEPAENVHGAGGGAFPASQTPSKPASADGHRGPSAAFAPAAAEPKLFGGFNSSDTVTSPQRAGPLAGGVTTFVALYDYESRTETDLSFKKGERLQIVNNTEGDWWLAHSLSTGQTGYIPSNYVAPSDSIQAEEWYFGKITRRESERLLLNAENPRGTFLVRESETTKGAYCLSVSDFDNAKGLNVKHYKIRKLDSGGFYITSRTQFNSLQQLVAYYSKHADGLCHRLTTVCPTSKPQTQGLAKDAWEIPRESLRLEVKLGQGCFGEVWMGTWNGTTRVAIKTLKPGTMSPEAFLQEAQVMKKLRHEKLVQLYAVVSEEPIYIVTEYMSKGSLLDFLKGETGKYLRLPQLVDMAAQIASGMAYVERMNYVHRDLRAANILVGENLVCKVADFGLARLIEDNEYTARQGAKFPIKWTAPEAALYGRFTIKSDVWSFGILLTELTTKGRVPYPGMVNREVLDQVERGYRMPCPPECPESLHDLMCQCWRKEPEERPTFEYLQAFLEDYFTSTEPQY

Q: With `CC[C@H](C)[C@H](NC(=O)[C@H](CCC(=O)O)NC(=O)[C@H](CCC(=O)O)NC(=O)[C@H](CCC(=O)O)NC(=O)[C@H](C)N)C(=O)N[C@@H](Cc1ccc(O)cc1)C(=O)NCC(=O)N[C@@H](CCC(=O)O)C(=O)N[C@@H](Cc1ccccc1)C(=O)N[C@@H](CCC(=O)O)C(=O)N[C@@H](C)C(=O)N[C@@H](CCCCN)C(=O)N[C@@H](CCCCN)C(=O)N[C@@H](CCCCN)C(=O)N[C@@H](CCCCN)C(=O)O` [Ala-Glu-Glu-Glu-Ile-Tyr-Gly-Glu-Phe-Glu-Ala-Lys-Lys-Lys-Lys] as the compound, how does the IC50 read?
A: 5 µM
